Source: patent US20100120618A1, “HERBICIDAL COMPOSITION” (SYNGENTA CROP PROTECTION, INC., priority 2007, published 2010)

Assays:
Avena = test: Post-emergence test, herbicidal activity on Avena; format: in vivo; settings: 21 days after application, average of 3 tests
Description: (§1) The test plants (Avena and winter wheat) are raised under greenhouse conditions in seed trays to a post-application stage (1.5- to 2-leaf stage). Pinoxaden is then applied to the test plants either alone or in admixture with component b) and optionally c). For both applications an additive is used which contains per litre 45% by weight Agnique ME 18 RD-F and 25% by weight Emulsogen M in Solvesso 200 ND. Application of pinoxaden is effected in the form of an emulsifiable concentrate (EC 100), and component b) and optionally c) is used in the form of WP 25. Those formulations are used to prepare spray mixtures, each of 200 litres, which contain 50 g or 100 g of pinoxaden and component b) and optionally c) and in each case 0.5% of additive (based on the volume of the spray mixtures). The tests are evaluated 21 days after application (herbicidal activity 100%=plant completely dead; herbicidal activity 0%=no phytotoxic action on the plant). The results, which are values averaged from 3 tests, are compiled in the following Table.

winter wheat = test: Post-emergence test, herbicidal activity on winter wheat; format: in vivo; settings: 21 days after application, average of 3 tests
Description: as §1

[1] = 100 g/ha pinoxaden + 0.5% additive

## CCc1cc(C)cc(CC)c1-c1c(OC(=O)C(C)(C)C)n2n(c1=O)CCOCC2 [pinoxaden]
Avena; 50 g/ha pinoxaden + 0.5% additive, 100%=plant completely dead
  Herbicidal activity on Avena: 82%
Avena; [1]
  Herbicidal activity on Avena: 87%
Winter wheat; 50 g/ha pinoxaden + 0.5% additive, 0%=no phytotoxic action
  Herbicidal activity on Winter wheat: 8%
Winter wheat; [1]
  Herbicidal activity on Winter wheat: 8%
